Data published in PubChem BioAssay AID248 (DTP/NCI, 2004).
Where “and” joins values, the source holds several entries; their conditions need not be identical. Equal values may be shown once. Inconclusive results and toxic doses are left out. No stated cut-off is given here; in the data, active means T/C of 150% or more; inactive means T/C below 125%.

System: L1210 leukemia ip in BDF1 mice, survival T/C
Assay: NCI In Vivo Anticancer Drug Screen. Data for tumor model L1210 Leukemia (intraperitoneal) in B6D2F1 (BDF1) mice
Conditions: endpoint: mean survival time, higher = longer survival
Experimental: The antitumor activity of compounds was measured in mice bearing transplantable tumors. Survival or tumor size were measured and the results are expressed as the measurement made in the treated group (T) divided by the measurement made in the vehicle treated control group (C). The tumor model used in this assay is L1210 Leukemia (intraperitoneal) in B6D2F1 (BDF1) mice

[1] = dose: 100.0 mg/kg/injection, schedule: Q01DX009 (ip), vehicle: saline
[2] = dose: 100.0 mg/kg/injection, schedule: Q04DX002 (ip), vehicle: saline
[3] = dose: 200.0 mg/kg/injection, schedule: Q01DX009 (ip), vehicle: saline
[4] = dose: 200.0 mg/kg/injection, schedule: Q04DX002 (ip), vehicle: saline
[5] = dose: 100.0 mg/kg/injection, schedule: Q04DX003 (ip), vehicle: saline with Tween-80
[6] = dose: 200.0 mg/kg/injection, schedule: Q04DX003 (ip), vehicle: saline with Tween-80
[7] = dose: 100.0 mg/kg/injection, schedule: Q01DX001 (ip), vehicle: saline
[8] = dose: 200.0 mg/kg/injection, schedule: Q01DX001 (ip), vehicle: saline
[9] = dose: 400.0 mg/kg/injection, schedule: Q01DX001 (ip), vehicle: saline
[10] = dose: 100.0 mg/kg/injection, schedule: Q04DX003 (ip), vehicle: Klucel (hydroxypropylcellulose) (HPC)
[11] = dose: 200.0 mg/kg/injection, schedule: Q01DX009 (ip), vehicle: Klucel (hydroxypropylcellulose) (HPC)
[12] = dose: 200.0 mg/kg/injection, schedule: Q04DX003 (ip), vehicle: Klucel (hydroxypropylcellulose) (HPC)
[13] = dose: 400.0 mg/kg/injection, schedule: Q01DX009 (ip), vehicle: Klucel (hydroxypropylcellulose) (HPC)
[14] = dose: 400.0 mg/kg/injection, schedule: Q04DX003 (ip), vehicle: Klucel (hydroxypropylcellulose) (HPC)
[15] = dose: 50.0 mg/kg/injection, schedule: Q01DX009 (ip), vehicle: saline with Tween-80
[16] = dose: 100.0 mg/kg/injection, schedule: Q01DX009 (ip), vehicle: Klucel (hydroxypropylcellulose) (HPC)
[17] = dose: 100.0 mg/kg/injection, schedule: Q01DX009 (ip), vehicle: saline with Tween-80
[18] = dose: 200.0 mg/kg/injection, schedule: Q01DX009 (ip), vehicle: saline with Tween-80
[19] = dose: 25.0 mg/kg/injection, schedule: Q01DX009 (ip), vehicle: saline with Tween-80

Measured: T/C

C=C(C)[C@H]1Cc2c(ccc3c2O[C@@H]2COc4cc(OC)c(OC)cc4[C@@H]2C3=O)O1
inactive: dose: 0.25 mg/kg/injection, schedule: Q01DX Z (ip), vehicle: other 95 % of control | dose: 0.5 mg/kg/injection, schedule: Q01DX Z (ip), vehicle: other 97 % of control | dose: 0.5 mg/kg/injection, schedule: Q02DX Z (ip), vehicle: water 96 % of control | dose: 0.75 mg/kg/injection, schedule: Q01DX Z (ip), vehicle: other 95 % of control | dose: 0.75 mg/kg/injection, schedule: Q02DX Z (ip), vehicle: water 101 % of control | dose: 1.0 mg/kg/injection, schedule: Q01DX Z (ip), vehicle: other 88 % of control | dose: 1.0 mg/kg/injection, schedule: Q02DX Z (ip), vehicle: water 102 % of control | dose: 2.0 mg/kg/injection, schedule: Q01DX015 (ip), vehicle: saline 97 % of control | dose: 2.0 mg/kg/injection, schedule: Q02DX Z (ip), vehicle: water 107 % of control | dose: 4.0 mg/kg/injection, schedule: Q01DX015 (ip), vehicle: saline 101 % of control | dose: 8.0 mg/kg/injection, schedule: Q01DX015 (ip), vehicle: saline 109 % of control | dose: 16.0 mg/kg/injection, schedule: Q01DX015 (ip), vehicle: saline 109 % of control

Nc1ccc(CCC(=O)NC(CCC(=O)O)C(=O)O)cc1 (centres undefined)
inactive: [1] 102 % of control | [2] 98 % of control | [3] 108 % of control | [4] 105 % of control | dose: 400.0 mg/kg/injection, schedule: Q01DX009 (ip), vehicle: saline 96 % of control | dose: 400.0 mg/kg/injection, schedule: Q04DX002 (ip), vehicle: saline 94 % of control

CCCCCC#CCO
inactive: [5] 108 % of control | [6] 101 % of control

CNc1ccccc1C(=O)NNS(=O)(=O)c1ccc(C)cc1
inactive: [7] 102 % of control | [8] 102 % of control | [9] 90 % of control

CC1=CC(C)(C)NC(=S)N1c1ccccc1
inactive: [10] 103 % of control | [11] 86 % of control | [12] 103 % of control | [13] 87 % of control | [14] 101 % of control

Cc1cc(=O)[nH]c(N/N=C/c2cc(Cl)ccc2O)n1
inactive: [15] 87 % of control

Cc1ccccc1CC1(Br)CC(C)(C)c2ccccc2C1=O (centres undefined)
inactive: [10] 93 % of control | [12] 106 % of control | [14] 88 % of control

CC12CCC(O)CC1CCC1C2CCC2(C)C1CC1NC12 (centres undefined)
inactive: dose: 100.0 mg/kg/injection, schedule: Q01DX001 (sc), vehicle: steriod suspending solution 92 % of control | dose: 200.0 mg/kg/injection, schedule: Q01DX001 (sc), vehicle: steriod suspending solution 94 % of control

Cc1cccc(Cl)c1NC(=O)N(Cc1ccccc1)Cc1ccccc1
inactive: [16] 100 % of control | [11] 105 % of control | [13] 97 % of control

CCS(=O)(=O)/C=C/c1ccncc1
inactive: dose: 25.0 mg/kg/injection, schedule: Q04DX002 (ip), vehicle: saline 104 % of control | dose: 50.0 mg/kg/injection, schedule: Q04DX002 (ip), vehicle: saline 101 % of control | [2] 111 % of control and 113 % of control

CN(C(=O)N(CCCl)N=O)c1ccccc1
inactive: dose: 100.0 mg/kg/injection, schedule: Q01DX001 (ip), vehicle: carboxymethylcellulose (CMC) 104 % of control | dose: 200.0 mg/kg/injection, schedule: Q01DX001 (ip), vehicle: carboxymethylcellulose (CMC) 104 % of control | dose: 400.0 mg/kg/injection, schedule: Q01DX001 (ip), vehicle: carboxymethylcellulose (CMC) 105 % of control

Cn1c2ccccc2c(=O)c2ccccc21
inactive: [7] 117 % of control | [8] 101 % of control | [9] 101 % of control

Cc1ccccc1-n1nnnc1N
inactive: dose: 100.0 mg/kg/injection, schedule: Q04DX003 (ip), vehicle: saline 102 % of control | dose: 200.0 mg/kg/injection, schedule: Q04DX003 (ip), vehicle: saline 96 % of control | dose: 400.0 mg/kg/injection, schedule: Q04DX003 (ip), vehicle: saline 98 % of control

O=C(O)CSCCSCC(=O)O
inactive: dose: 12.5 mg/kg/injection, schedule: Q04DX002 (ip), vehicle: carboxymethylcellulose (CMC) 95 % of control | dose: 25.0 mg/kg/injection, schedule: Q04DX002 (ip), vehicle: carboxymethylcellulose (CMC) 97 % of control | dose: 50.0 mg/kg/injection, schedule: Q04DX002 (ip), vehicle: carboxymethylcellulose (CMC) 98 % of control | [17] 104 % of control | [18] 94 % of control and 91 % of control

CCSC1=C(N2CC2)C(=O)C(SCC)=C(N2CC2)C1=O
inactive: dose: 150.0 mg/kg/injection, schedule: Q04DX003 (ip), vehicle: saline 96 % of control | dose: 225.0 mg/kg/injection, schedule: Q04DX003 (ip), vehicle: saline 96 % of control

O=C(OCC(Cl)(Cl)Cl)OCC(Cl)(Cl)Cl
inactive: [10] 98 % of control | [12] 98 % of control

O=C(Nc1ccc(Cl)cc1[N+](=O)[O-])Oc1cc2ccccc2cc1C(=O)Nc1ccccc1
inactive: [17] 100 % of control and 88 % of control | dose: 100.0 mg/kg/injection, schedule: Q04DX002 (ip), vehicle: saline with Tween-80 93 % of control and 94 % of control | [18] 86 % of control and 87 % of control | dose: 200.0 mg/kg/injection, schedule: Q04DX002 (ip), vehicle: saline with Tween-80 94 % of control and 101 % of control | dose: 400.0 mg/kg/injection, schedule: Q01DX009 (ip), vehicle: saline with Tween-80 93 % of control and 96 % of control | dose: 400.0 mg/kg/injection, schedule: Q04DX002 (ip), vehicle: saline with Tween-80 94 % of control and 90 % of control

CCOC(=O)C(C(=O)c1ccccc1)c1cc(NS(=O)(=O)c2ccccc2)ccc1O (centres undefined)
inactive: dose: 12.5 mg/kg/injection, schedule: Q01DX009 (ip), vehicle: saline with Tween-80 90 % of control | [19] 95 % of control | [15] 94 % of control and 97 % of control | [17] 86 % of control | [5] 91 % of control | [18] 86 % of control

CN(C)c1ccc(Cc2ccc(N(C)C)cc2[N+](=O)[O-])c([N+](=O)[O-])c1
inactive: dose: 50.0 mg/kg/injection, schedule: Q01DX009 (ip), vehicle: Klucel (hydroxypropylcellulose) (HPC) 100 % of control | [16] 98 % of control and 92 % of control | [10] 101 % of control and 102 % of control | [11] 97 % of control and 101 % of control | [12] 102 % of control and 104 % of control | [13] 101 % of control and 92 % of control | [14] 98 % of control and 105 % of control

COC(=O)NC1CC=CCC1I (centres undefined)
inactive: [5] 100 % of control | [6] 102 % of control | dose: 400.0 mg/kg/injection, schedule: Q04DX003 (ip), vehicle: saline with Tween-80 102 % of control

CSc1ncnc2c1cnn2C1OC(CCC#N)C(O)C1O (centres undefined)
inactive: [7] 97 % of control | [8] 98 % of control

Cc1c2oc3c(C)ccc(C(=O)NCCN4CCCCC4)c3nc-2c(C(=O)NCCN2CCCCC2)c(N)c1=O
inactive: [2] 103 % of control | [4] 109 % of control

COC(=O)n1nc2ccccc2c1N
inactive: dose: 50.0 mg/kg/injection, schedule: Q01DX009 (ip), vehicle: saline 96 % of control | [1] 96 % of control | [3] 93 % of control

CC(=O)CC(=O)N(C)c1ccccc1
inactive: dose: 75.0 mg/kg/injection, schedule: Q01DX001 (ip), vehicle: carboxymethylcellulose (CMC) 104 % of control | dose: 150.0 mg/kg/injection, schedule: Q01DX001 (ip), vehicle: carboxymethylcellulose (CMC) 105 % of control

c1ccc([CH2][Pb]([c]2ccccc2)([c]2ccccc2)[c]2ccccc2)cc1
inactive: [19] 93 % of control | [15] 94 % of control | [17] 96 % of control | dose: 200.0 mg/kg/injection, schedule: Q01DX001 (ip), vehicle: saline with Tween-80 108 % of control | dose: 400.0 mg/kg/injection, schedule: Q01DX001 (ip), vehicle: saline with Tween-80 97 % of control

O=C1CSc2cc[nH]c21
inactive: [16] 95 % of control | [10] 100 % of control | [12] 95 % of control | [14] 98 % of control

CSc1c(C(N)=O)c2c(N)ncnc2n1C1OC(CO)C(O)C1O (centres undefined)
inactive: [7] 114 % of control | [8] 121 % of control | [9] 121 % of control

CCCCCCC(=O)C(CCCC)(C(=O)OCC)C(=O)OCC
inactive: [16] 101 % of control | [11] 104 % of control | [13] 101 % of control
